Data on two molecules can be found in US20140057895A1, “INDAZOLE- AND PYRROLOPYRIDINE-DERIVATIVE AND PHARMACEUTICAL USE THEREOF” (priority 2011, published 2014).

Broadly, the IC50 is the point on the concentration scale where inhibition reaches its midpoint.

The target of assay [1] is T1, Human 5-HT4 receptor (5-HT4b) (Homo sapiens, UniProt Q13639).
T1 construct: expressed in transfected cells; membrane preparation
The assay can be described thus: Test Example 3: Human 5-HT4 receptor binding assay, membranes of CHO-K1 cells stably expressing 5-HT4b receptors (Table 99). The conditions noted are these: mean value of each group. The method in brief:
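Radioligand displacement: [3H]-GR113808 (0.1 nM) bound to CHO-K1 5-HT4b membranes for 30 min at 37 °C in Hepes buffer (50 mM, pH 7.4). Specific binding is total minus that with 30 μM serotonin; filter-bound radioactivity counted, IC50 derived from percent inhibition.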

In assay [2] the test system is scopolamine-induced cognitive impairment. The assay can be described thus: Example 5: Y-maze test, scopolamine-induced cognitive impairment, single-agent administration (Table 101). It is filed as in vivo, ddY mouse. The conditions noted are these: p.o., scopolamine-treated, # = P<0.05 vs scopolamine group. An excerpt: (§1) Thus, scopolamine-induced cognitive impairment model, one of the AD-like model, has been used to predict pharmacodynamic signals of putative procognitive compounds, utilizing the acetylcholinesterase inhibitor donepezil for illustration (See, Citations 1 and 2). The present inventors investigated the effect of each compound on reversal of scopolamine-induced deficits in performance of Y-maze test in mice, and they also investigated adjunctive effect of compounds with donepezil on reversal of deficits induced by scopolamine and MK801 in mice.
(§2) Used animal: ddY mouse (SLC)
(§3) In the experiments, the mice were grouped in the same way using Stat Preclinica (Version 1.03295; Takumi Information Technology Inc.). The selected mice were divided into 5 to 7 groups of 7 to 12 mice using the “completely randomization design by the single variable” program (Analytical program version 1.0.7), with body weight on the testing day. After grouping, p values for Bartlett's test and ANOVA across all groups were greater than 0.2, indicating no significant difference in this parameter among the groups.
The required amount of each compound was weighed and put into a glass homogenizer. […]
(§4) The required amount of scopolamine and MK801 were weighed, and saline was added to it to give 0.3 mg/mL and 0.015 mg/mL solution, respectively.
(§5) 90 Min before the test, the mice were orally administered each compound, donepezil, and vehicle (0.5% methyl cellulose, 10 mL/kg). After 60 min, memory impairment was induced by administering scopolamine (0.6 mg/kg, s.c.) with (co-administration) or without (mono-administration) MK801 (0.03 mg/kg, s.c.). The control group received saline (2 mL/kg, s.c.) rather than scopolamine and MK801.
(§6) The Y-maze used herein is a three-arm maze with equal angles between all arms. The mazefloor and walls were constructed from black acrylic resin. The mice were initially placed within one arm, and the sequence and number of arm entries were recorded manually for each mouse over an 8-min period.
(§7) Data were processed and analyzed with Microsoft® Office Excel 2003. The alternation behavior was defined as entries into all three arms on consecutive occasions. The percent alternation behavior in each animal was calculated using the following formula, and rounded to one decimal place.
(§8) Alternation behavior(%)=[actual alternation/(total arm entries−2)]×100
(§9) Restoration ratio of alternation behavior (%) in each animal was calculated using the following formula, and rounded to one decimal place.
(§10) Restoration ratio of alternation behavior in each animal (%)=y Alternation behavior in each animal (%)=x Mean of alternation behavior in vehicle-treated group (group No. 1) (%)=A Mean of alternation behavior in scopolamine-treated group (group No. 2) (%)=B
(§11) Data were expressed as the mean of the percent alternation behavior, the number of total arm entries and the restoration ratio of alternation behavior.
(§12) Values of Y-maze tests are expressed as mean of alternation behavior (n=7−12).
(§13) Alternation behaviors in the scopolamine-treated groups were compared to those in the control groups using Wilcoxon rank sum test (Stat preclinical; Version 1.03295; Takumi Information Technology Inc.) with a two-sided significance level of 0.05.
Restoration of alternation behavior was analyzed using Stat Preclinica. Alternation behaviors in the vehicle-treated group were compared to those in the test substance-treated groups using non-parametric Dunnett multiple comparison test (Analytical program version 1.0.2) with a two-sided significance level of 0.05.

The test system of assay [3] is scopolamine and MK801-induced cognitive impairment. The assay is described as follows: Example 5: Y-maze test, scopolamine and MK801-induced deficits, co-administration with donepezil (Table 102). It is filed as in vivo, ddY mouse.
Excerpt: as §1, §2, §3
The required amount of each compound was weighed and put into a glass homogenizer. The required amount of 0.5% MC (methyl cellulose) solution was added, and each compound was suspended to give a 10 mg/kg dosing suspension.
The required amount of donepezil was weighed and put into a glass homogenizer. The required amount of 0.5% MC solution was added, and donepezil was suspended to give a suspension at concentration of 1 mg/mL (10 mg/kg dosing suspension).
as §4, §5, §6, §7, §8, §9, §10, §11, §12, §13
Restoration of alternation behavior was analyzed using Stat Preclinica. Alternation behaviors in the Donepezil (10 mg/kg, p.o.)-treated group were compared to those in the co-administrated groups of test compounds with donepezil (10 mg/kg, p.o.) using non-parametric Dunnett multiple comparison test (Analytical program version 1.0.2) with a two-sided significance level of 0.05.

The mark [4] stands for this setting: compound 0.1 mg/kg, p.o. co-administered with Donepezil 10 mg/kg, p.o.

Marks after values point to notes of the source that are not given here.

T1 sequence (Q13639 whole entry): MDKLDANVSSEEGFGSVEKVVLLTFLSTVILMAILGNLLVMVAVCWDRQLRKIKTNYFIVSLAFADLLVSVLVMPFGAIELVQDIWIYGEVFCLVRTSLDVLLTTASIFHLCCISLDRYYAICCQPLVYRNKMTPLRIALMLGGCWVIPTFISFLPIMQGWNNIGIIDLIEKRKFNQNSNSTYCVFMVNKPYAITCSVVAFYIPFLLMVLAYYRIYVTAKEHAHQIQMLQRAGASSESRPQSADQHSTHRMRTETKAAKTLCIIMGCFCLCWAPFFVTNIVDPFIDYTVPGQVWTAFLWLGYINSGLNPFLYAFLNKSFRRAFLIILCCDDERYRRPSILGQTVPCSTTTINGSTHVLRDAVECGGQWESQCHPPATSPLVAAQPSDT

Consider `CC(=O)N1CCC(N2CCC(c3nc(-n4nc(C(C)C)c5cccc(F)c54)no3)CC2)CC1.Cl` [Example 232, 1-(4-{3-[7-fluoro-3-(propan-2-yl)-1H-indazol-1-yl]-1,2,4-oxadiazol-5-yl}-1,4′-bipiperidin-1′-yl)ethanone hydrochloride], for which, in assay [1], the 50% inhibitory concentration (IC50) is below 20 nM. Besides, the “Alternation behavior (%)” value is listed as 66.3^# % in assay [2] (compound 1 mg/kg); 63.0^# % in assay [2] (compound 3 mg/kg); 53.6% in assay [2] (compound 10 mg/kg); 46.7% in assay [3] (compound 0.03 mg/kg, p.o. alone); 48.5% in assay [3] (compound 0.03 mg/kg, p.o. co-administered with Donepezil 10 mg/kg, p.o.); 48.0^# % in assay [3] (compound 0.1 mg/kg, p.o. alone). The “Alternation behavior (%)” value in assay [3] (setting [4]) was 62.4^$ %.

The molecule `CC(C)c1nn(-c2noc(C3CCN(C4CCN(C(=O)CO)CC4)CC3)n2)c2c(F)cccc12` [Example 242, 1-(4-{3-[7-fluoro-3-(propan-2-yl)-1H-indazol-1-yl]-1,2,4-oxadiazol-5-yl}-1,4′-bipiperidin-1′-yl)-2-hydroxyethanone] returned an IC50 in assay [1] below 20 nM. The “Alternation behavior (%)” value in assay [2] (compound 1 mg/kg) was 63.4^# %; in assay [2] (compound 3 mg/kg), 62.9^# %; in assay [2] (compound 10 mg/kg) it was 57.5%; in assay [3] (compound 0.1 mg/kg, p.o. alone), 51.2^# %; in assay [3] (setting [4]), 58.6^$ %; in assay [3] (compound 0.3 mg/kg, p.o. alone), 57.4^# %. Further, in assay [3] (compound 0.3 mg/kg, p.o. co-administered with Donepezil 10 mg/kg, p.o.), the “Alternation behavior (%)” value is listed as 62.5^$ %.
